Measured values reported in PubChem BioAssay AID1963442 (Molecular Pharmacology Branch, DTP, NCI, 2024).
Where “and” joins values, the source holds several entries; their conditions need not be identical. Equal values may be shown once.

System: MPNST complex spheroid with HUVEC/MSC, growth, % test/control
Assay: Anticancer human tumor MPNST cell line growth inhibition [Asc];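 note: compounds left on spheroids for seven days before reading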
Conditions: for viability, T/C: stronger effect = lower value
Outline: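 Spheroid model: tumor line + HUVEC + hMSC. Single agents and combinations; top conc. at/near clinical Cmax (10 microM if undetermined), half-log dilutions. DMSO stocks at 800-fold test concentration.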

[1] = curve of first compound, second compound 0.03 µM
[2] = curve of first compound, second compound 0.0949 µM
[3] = curve of first compound, second compound 0.3 µM
[4] = curve of first compound, second compound 0.949 µM
[5] = curve of first compound, second compound 3 µM
[6] = second compound 0.03 µM, first compound 0.00316 µM
[7] = second compound 0.03 µM, first compound 0.01 µM
[8] = second compound 0.03 µM, first compound 0.0316 µM
[9] = second compound 0.03 µM, first compound 0.1 µM
[10] = second compound 0.0949 µM, first compound 0.00316 µM
[11] = second compound 0.0949 µM, first compound 0.01 µM
[12] = second compound 0.0949 µM, first compound 0.0316 µM
[13] = second compound 0.0949 µM, first compound 0.1 µM
[14] = second compound 0.3 µM, first compound 0.00316 µM
[15] = second compound 0.3 µM, first compound 0.01 µM
[16] = second compound 0.3 µM, first compound 0.0316 µM
[17] = second compound 0.3 µM, first compound 0.1 µM
[18] = second compound 0.949 µM, first compound 0.00316 µM
[19] = second compound 0.949 µM, first compound 0.01 µM
[20] = second compound 0.949 µM, first compound 0.0316 µM
[21] = second compound 0.949 µM, first compound 0.1 µM
[22] = second compound 3 µM, first compound 0.00316 µM
[23] = second compound 3 µM, first compound 0.01 µM
[24] = second compound 3 µM, first compound 0.0316 µM
[25] = second compound 3 µM, first compound 0.1 µM

Cc1nc(N2CCC3(CC2)COC(C)C3N)c(CO)nc1Sc1ccnc(N)c1Cl (configuration not stated)
viability, T/C (compound 0.00949 µM): 64.8% and 95.2% and 81.6%
viability, T/C (compound 0.03 µM): 69.3% and 115% and 93.2%
viability, T/C (compound 0.0949 µM): 81% and 125% and 89.5%
viability, T/C (compound 0.3 µM): 48.4% and 109% and 92%
viability, T/C (compound 0.949 µM): 55.7% and 115% and 93.5%
viability, T/C (compound 3 µM): 18.5% and 86.6% and 80.5%
IC50 (curve of compound): 964 nM and > 3000 nM

CNC(C)C(=O)NC1CN(S(=O)(=O)c2cccc(S(=O)(=O)N3CCC4CCC(C(=O)NC(c5ccccc5)c5ccccc5)N4C(=O)C(NC(=O)C(C)NC)C3)c2)CCC2CCC(C(=O)NC(c3ccccc3)c3ccccc3)N2C1=O (configuration not stated) + CCN1C(C(=O)NC23CCC(C(=O)O)(CC2)CC3)C(c2cccc(Cl)c2F)C2(C(=O)Nc3cc(Cl)ccc32)C12CCCCC2
IC50 [1]: > 1000 nM
IC50 [2]: > 1000 nM
IC50 [3]: > 1000 nM
IC50 [4]: > 1000 nM
IC50 [5]: > 1000 nM
viability, T/C [6]: 74.7%
viability, T/C [7]: 78.1%
viability, T/C [8]: 94.7%
viability, T/C [9]: 114%
viability, T/C (second compound 0.03 µM, first compound 0.316 µM): 106%
viability, T/C (second compound 0.03 µM, first compound 1 µM): 93%
viability, T/C [10]: 92.5%
viability, T/C [11]: 93.9%
viability, T/C [12]: 100%
viability, T/C [13]: 100%
viability, T/C (second compound 0.0949 µM, first compound 0.316 µM): 108%
viability, T/C (second compound 0.0949 µM, first compound 1 µM): 89.3%
viability, T/C [14]: 101%
viability, T/C [15]: 99.7%
viability, T/C [16]: 99.4%
viability, T/C [17]: 99.8%
viability, T/C (second compound 0.3 µM, first compound 0.316 µM): 96.6%
viability, T/C (second compound 0.3 µM, first compound 1 µM): 122%
viability, T/C [18]: 98.1%
viability, T/C [19]: 93.2%
viability, T/C [20]: 107%
viability, T/C [21]: 104%
viability, T/C (second compound 0.949 µM, first compound 0.316 µM): 105%
viability, T/C (second compound 0.949 µM, first compound 1 µM): 106%
viability, T/C [22]: 86.2%
viability, T/C [23]: 86.9%
viability, T/C [24]: 100%
viability, T/C [25]: 104%
viability, T/C (second compound 3 µM, first compound 0.316 µM): 93.8%
viability, T/C (second compound 3 µM, first compound 1 µM): 118%

NC1CCC(NC2CC2c2ccccc2)CC1 (configuration not stated) + Cc1c(S(C)(=O)=O)c(-c2cc(F)cc(N3CCN(c4ccc(NS(=O)(=O)c5ccc(NC(CCN6CCC(C(=O)OCCCP(=O)(O)O)CC6)CSc6ccccc6)c(S(=O)(=O)C(F)(F)F)c5)cc4)CC3)c2)c(-c2ccc(Cl)cc2)n1C(C)C
IC50 (curve of first compound, second compound 0.1 µM): > 100 nM
IC50 (curve of first compound, second compound 0.316 µM): > 100 nM
IC50 (curve of first compound, second compound 1 µM): > 100 nM
IC50 (curve of first compound, second compound 3.16 µM): > 100 nM
IC50 (curve of first compound, second compound 10 µM): > 100 nM
viability, T/C (second compound 0.1 µM, first compound 0.000316 µM): 67.4%
viability, T/C (second compound 0.1 µM, first compound 0.001 µM): 71.3%
viability, T/C (second compound 0.1 µM, first compound 0.00316 µM): 63.5%
viability, T/C (second compound 0.1 µM, first compound 0.01 µM): 75%
viability, T/C (second compound 0.1 µM, first compound 0.0316 µM): 72.4%
viability, T/C (second compound 0.1 µM, first compound 0.1 µM): 64.2%
viability, T/C (second compound 0.316 µM, first compound 0.000316 µM): 81.8%
viability, T/C (second compound 0.316 µM, first compound 0.001 µM): 67.6%
viability, T/C (second compound 0.316 µM, first compound 0.00316 µM): 87.1%
viability, T/C (second compound 0.316 µM, first compound 0.01 µM): 64.5%
viability, T/C (second compound 0.316 µM, first compound 0.0316 µM): 66.4%
viability, T/C (second compound 0.316 µM, first compound 0.1 µM): 61.8%
viability, T/C (second compound 1 µM, first compound 0.000316 µM): 73.8%
viability, T/C (second compound 1 µM, first compound 0.001 µM): 63.2%
viability, T/C (second compound 1 µM, first compound 0.00316 µM): 70.4%
viability, T/C (second compound 1 µM, first compound 0.01 µM): 66.5%
viability, T/C (second compound 1 µM, first compound 0.0316 µM): 69.4%
viability, T/C (second compound 1 µM, first compound 0.1 µM): 59.8%
viability, T/C (second compound 3.16 µM, first compound 0.000316 µM): 60.8%
viability, T/C (second compound 3.16 µM, first compound 0.001 µM): 81.5%
viability, T/C (second compound 3.16 µM, first compound 0.00316 µM): 64.9%
viability, T/C (second compound 3.16 µM, first compound 0.01 µM): 65.8%
viability, T/C (second compound 3.16 µM, first compound 0.0316 µM): 65.4%
viability, T/C (second compound 3.16 µM, first compound 0.1 µM): 54.1%
viability, T/C (second compound 10 µM, first compound 0.000316 µM): 79%
viability, T/C (second compound 10 µM, first compound 0.001 µM): 83.2%
viability, T/C (second compound 10 µM, first compound 0.00316 µM): 69.2%
viability, T/C (second compound 10 µM, first compound 0.01 µM): 69.7%
viability, T/C (second compound 10 µM, first compound 0.0316 µM): 65.9%
viability, T/C (second compound 10 µM, first compound 0.1 µM): 62%

NC1CCC(NC2CC2c2ccccc2)CC1 (configuration not stated) + CCN1C(C(=O)NC23CCC(C(=O)O)(CC2)CC3)C(c2cccc(Cl)c2F)C2(C(=O)Nc3cc(Cl)ccc32)C12CCCCC2
IC50 [1]: > 100 nM
IC50 [2]: > 100 nM
IC50 [3]: > 100 nM
IC50 [4]: > 100 nM
IC50 [5]: > 100 nM
viability, T/C (second compound 0.03 µM, first compound 0.000316 µM): 79.1%
viability, T/C (second compound 0.03 µM, first compound 0.001 µM): 72.2%
viability, T/C [6]: 67.4%
viability, T/C [7]: 74.8%
viability, T/C [8]: 87%
viability, T/C [9]: 82.7%
viability, T/C (second compound 0.0949 µM, first compound 0.000316 µM): 98.7%
viability, T/C (second compound 0.0949 µM, first compound 0.001 µM): 87.6%
viability, T/C [10]: 92.6%
viability, T/C [11]: 91.5%
viability, T/C [12]: 63.7%
viability, T/C [13]: 82.7%
viability, T/C (second compound 0.3 µM, first compound 0.000316 µM): 81.7%
viability, T/C (second compound 0.3 µM, first compound 0.001 µM): 85.7%
viability, T/C [14]: 83.8%
viability, T/C [15]: 90.8%
viability, T/C [16]: 69.5%
viability, T/C [17]: 75%
viability, T/C (second compound 0.949 µM, first compound 0.000316 µM): 87.9%
viability, T/C (second compound 0.949 µM, first compound 0.001 µM): 87.7%
viability, T/C [18]: 98%
viability, T/C [19]: 74.2%
viability, T/C [20]: 72.5%
viability, T/C [21]: 66.7%
viability, T/C (second compound 3 µM, first compound 0.000316 µM): 83.9%
viability, T/C (second compound 3 µM, first compound 0.001 µM): 81.4%
viability, T/C [22]: 60.3%
viability, T/C [23]: 59.8%
viability, T/C [24]: 68.9%
viability, T/C [25]: 65.8%
